The subject of this assay is INS-1E Gaussia luciferase insulin secretion, no glucose, luminescence. Briefly: insulin secretion activators without glucose, dose response, counter-screen for glucose-dependent insulin secretion activators, cell-based, INS-1E, Gaussia luciferase, luminescence, cherry-pick (AID 977606). (A counterscreen serves to expose hits that act by an unwanted route or on another target.)

Calls of active or inactive are those of the source. The rule behind the calls is not given here.

Turning to `CCCCc1c(-c2ccccc2OC)ncn1C(C)c1ccc(Cl)cc1` (stereo not drawn), the AC40 was 7.72 µM.
Consider `COc1ccc(-c2ccc(-c3noc(-c4ccco4)n3)c(OC)n2)cc1`, for which the AC40 is 5.41 µM.
Turning to `CC(C)(C)S(=O)N1Cc2cc(C(=O)Nc3ccc(-c4ccccc4)cc3)nc(-c3cccc(-c4cccc(F)c4)c3)c2[C@@H]1CCO` (stereo partly drawn), the AC40 is 13.4 µM.
The result for `Nc1c(C(=O)Nc2ccc3c(c2)OCCO3)nnn1Cc1ccc(Cl)cc1` reads 10.1 µM.
The result for `Clc1ccc(-c2ccnc(Oc3cc(Cl)ccc3Cl)n2)cc1` reads 6.7 µM; that for `COc1ccc(S(=O)(=O)N2CCc3ccccc32)cc1C(=O)Nc1ccc(C(N)=O)cc1`, 6.44 µM; that for `Cc1ccc2c(Cl)c(C)c(N3CCCCC3)nc2n1`, 9.65 µM.
`CC(=O)C1=C(S(=O)(=O)c2ccc(C)cc2)CS(=O)(=O)C1`: the AC40 was 0.613 µM.
`Cc1cc(S(=O)(=O)Nc2nc(CN3CCOCC3)nc3sc4c(c23)CCC4)ccc1F`: the AC40 is > 35 µM (inactive).
The figure for `COc1ccc(-c2cc3ccccc3oc2=O)cc1NC(=S)NC(=O)c1ccc2c(c1)OCCO2` is 1.2 µM; for `CCOc1ncccc1C(=O)NC(C)CCc1ccccc1` (stereo not drawn) it is 16.2 µM; for `COc1cc(CN2[C@@H]3CNC[C@H]2C3c2ccc(/C=C/c3ccccc3)cc2)cc(OC)c1` (stereo partly drawn) it is 9.7 µM.
Take `NS(=O)(=O)c1ccc(NC(=S)N2CCN(c3ccc(Cl)c(Cl)c3)CC2)cc1`: the AC40 was 3.74 µM.
The figure for `O=c1c2ccc(F)cc2sn1-c1ccccc1` is 1.45 µM; for `COc1ccc(-c2ccc3c(N)c(C(=O)c4ccc(OC)c(OC)c4)sc3n2)cc1` it is 6.27 µM; for `O=c1c2ccccc2sn1-c1ccc(F)cc1` it is 2.43 µM.
The result for `Cc1ccc2sc(-c3ccc(NC(=O)c4cc(-n5cnnc5)ccc4Cl)cc3)nc2c1` reads 8.4 µM; that for `COC(=O)c1ccc(C2C(Oc3ccc(OC)cc3)C(=O)N2CCc2ccc(F)cc2)cc1` (stereo not drawn), 6.79 µM; that for `COc1ccc(C#Cc2ccc([C@@H]3[C@H](CO)N4CCCCN(Cc5ccccc5F)C[C@@H]34)cc2)cc1`, 9.33 µM.
The figure for `CN(C)CCOc1ccc(-c2c(-c3ccsc3)sc3ccccc23)cc1` is 5.7 µM; for `CCOc1ccc(Nc2oc(-c3ccc(Cl)cc3)nc2C#N)cc1` it is 5.43 µM.
In the case of `FC(F)(F)c1cc(CCN2CCNC[C@H]2Cc2cccc3ccccc23)cc(C(F)(F)F)c1`, the AC40 is 3.69 µM.
The figure for `Cc1ccccc1-c1ccc(C2[C@@H]3CN(S(=O)(=O)c4ccccc4C)C[C@H]2N3)cc1` (stereo partly drawn) is 5.8 µM; for `CCOC(=O)c1c(C)n(-c2ccc(C)cc2)c2ccc(OCC(O)CN3CCN(C)CC3)cc12` (stereo not drawn) it is 17.2 µM.
Regarding `Cc1ccc(NC(=O)CNC(=O)c2sc3ccccc3c2Cl)nc1`, the AC40 was 10.3 µM.
Consider `Nn1c(-c2ccccc2)cc(-c2ccccc2)cc1=O`, for which the AC40 was > 35 µM (inactive).
Regarding `CC(C)(C)c1ccc(-c2cc(-c3ccccc3O)[nH]n2)cc1`, the AC40 was 5.34 µM.
For the molecule `CC(C)CC#Cc1ccc2c(c1)O[C@H](CN(C)C(=O)C1CCCCC1)[C@@H](C)CN([C@@H](C)CO)S2(=O)=O`, the AC40 is 15.8 µM.
The figure for `Cc1cccc(-c2ccc(C3[C@@H]4CN(C(=O)Nc5ccc(C(F)(F)F)cc5)C[C@H]3N4)cc2)c1` (stereo partly drawn) is 1.7 µM; for `O[C@H]1C[C@H](c2ccccc2)N(CC2CCCCC2)C[C@@H]1n1cc(C2CC2)nn1` it is 8.64 µM; for `O=C(Nc1ccc(F)cc1)Nc1cc(OCC(F)(F)F)cc(OCC(F)(F)F)c1` it is 5.78 µM.
As to `Cc1cc(OCC(O)CNC(C)c2ccccc2)ccc1C(C)C` (stereo not drawn), the AC40 was 9.73 µM.
The result for `O=C(Nc1cccnc1)/C(N=Nc1cccnc1)=C(\O)c1ccccc1` reads > 35 µM (inactive).
In the case of `O=C(Nc1cccc(Cl)c1)Nc1nc(-c2ccc(Cl)cc2)cs1`, the AC40 was > 35 µM (inactive).
As for `C(=C\c1ccc(C2[C@@H]3CN(Cc4nccs4)C[C@H]2N3)cc1)/c1ccccc1` (stereo partly drawn), the AC40 was 9.48 µM.
For `Cc1ccc(C(OCC(O)CNCc2ccc(F)cc2)c2ccccc2)cc1` (stereo not drawn), the AC40 is 8.22 µM.
The figure for `O=C(N/N=C/c1ccc(Cl)cc1Cl)Nc1ccccc1` is 7.4 µM; for `CCCCc1c(-c2cccc(OC)c2)ncn1CCc1ccccc1OC` it is 7.6 µM.
The result for `CCNC(=O)NC(=O)C(C)OC(=O)c1oc2ccccc2c1CSC1CCCCC1` (stereo not drawn) reads 2.22 µM.
Turning to `O=C(NN=Cc1ccccc1Cl)c1cccc2ccccc12`, the AC40 is 7.18 µM.
The result for `CCCCCc1cc(=O)oc2c(C(CCN3CCCC(C)C3)c3ccc(OC)cc3)c(OC)cc(OC)c12` (stereo not drawn) reads 8.58 µM.
The figure for `NC[C@H](Cc1ccccc1)NCCc1cc(C(F)(F)F)cc(C(F)(F)F)c1` is 9.24 µM; for `O=C(Cn1ncc(Cl)c(Cl)c1=O)Nc1ccc2c(c1)OCO2` it is 8.01 µM; for `COc1ccc(-n2sc3ccccc3c2=O)cc1` it is 0.759 µM.
The result for `N#Cc1nccnc1S(=O)(=O)c1cccs1` reads 0.355 µM; that for `CN(C)CCOc1ccc(-c2c(-c3ccccc3)sc3ccccc23)cc1`, 1.97 µM; that for `COc1ccccc1CCn1cnc(-c2ccc(F)cc2)c1CC(C)C`, 6.41 µM.
On to `CC(=O)Oc1ccccc1C(=O)OCCN=C1NS(=O)(=O)c2ccccc21`, for which the AC40 is > 35 µM (inactive).
The figure for `O=c1[nH]cnc2nc(-c3ccc(N(CCCl)CCCl)cc3)[nH]c12` is 4.26 µM; for `O=C(OCC12CC3CC(CC(C3)C1)C2)c1ccc(NCc2cc(O)ccc2O)cc1` it is 9.2 µM; for `O=C(Cn1nnc(-c2ccccc2)n1)N=Nc1c(O)[nH]c2ccccc12` it is 8.24 µM.
The figure for `OC[C@@H]1[C@@H](c2ccc(C#CC3CCCC3)cc2)[C@H]2CN(CCC(F)(F)F)CCCCN12` is 6.32 µM; for `CCOC(=O)c1cc(-c2ccc(Cl)s2)nc2c1c(C)nn2C` it is 13.6 µM.
The result for `O=C(N/N=C/c1ccco1)c1cc(-c2ccc3ccccc3c2)n[nH]1` reads 3.97 µM; that for `COc1ccc(Br)cc1C(=O)Nc1cccc(C)c1`, 9.88 µM; that for `O=C(Nc1ccc2c(c1)OCO2)c1sc2cc(Cl)ccc2c1Cl`, 4.98 µM.
For `CCCCc1c(-c2ccccc2OC)ncn1Cc1ccccc1C`, the AC40 is 11.3 µM.
The figure for `COc1ccc(C[C@H]2CN3C(=NC[C@@H]3Cc3ccccc3)N2CCNC(=O)CCC2CCCCC2)cc1` is 13.5 µM.
As for `COc1ccc(C)cc1NCc1cc(=O)oc2cc(-c3ccccc3)c(O)cc12`, the AC40 is 23.6 µM.
The figure for `Cc1cccc(-c2ccc(C3[C@@H]4CN(C(=O)C5CCCCC5)C[C@H]3N4)cc2)c1` (stereo partly drawn) is 11.3 µM; for `Cc1ccc(-n2ncc3c(=O)n(CC(=O)Nc4cccc(Cl)c4)cnc32)cc1C` it is 6.76 µM.
Consider `COc1cccc(OCc2nc3c4cnn(-c5ccccc5)c4ncn3n2)c1`, for which the AC40 was 6.42 µM.
The result for `CC(C)C[C@H](NC(=O)c1nc[nH]c1C(=O)NC1CCN(C(=O)OC(C)(C)C)CC1)C(=O)OC(C)(C)C` reads 26.4 µM; that for `Cc1ccccc1CSCc1ccc(C(=O)NCCCN2CCOCC2)o1`, 26.4 µM; that for `COc1ccccc1NC(=O)N1CCCCN2[C@@H](CO)[C@@H](c3ccc(C#CC4CCCC4)cc3)[C@@H]2C1`, 9.17 µM.
The figure for `CCCCc1ccc(NC(=O)COc2ccc(C(=O)Nc3ccccc3OCC)cc2)cc1` is 1.3 µM.
Regarding `O=C1N/C(=N\N=C\c2cccs2)SC1Cc1cccc(Cl)c1` (stereo not drawn), the AC40 is 5.93 µM.
Turning to `Cc1cccc(S(=O)(=O)N2C[C@@H]3N[C@H](C2)C3c2ccc(-c3ccccc3F)cc2)c1` (stereo partly drawn), the AC40 was 2.91 µM.
The result for `CCOc1ccc(CN2C(=O)c3ccccc3C2=O)cc1C(=O)Nc1nnc(SCC)s1` reads 5.71 µM.
The figure for `COc1ccc(C(=O)NC(=S)Nc2ccc3c4c(cccc24)CC3)cc1OC` is 6.85 µM; for `CC(C)C[C@H](NC(=O)c1[nH]cnc1C(=O)N[C@@H](C)c1ccccc1)C(=O)OC(C)(C)C` it is 20 µM.
The result for `Cc1cc(C(F)F)n2ncc(C(=O)NCc3ccc(F)cc3)c2n1` reads > 35 µM (inactive).
Consider `CCSc1nnc(NC(=O)c2csc3c2CCCC3)s1`, for which the AC40 was 5.49 µM.
Regarding `COc1ccc(NC(=O)c2sc3nc(N4CCOCC4)c4c(c3c2N)CC(C)(C)OC4)c(OC)c1`, the AC40 was 6.06 µM.
With `CC(C)CC#Cc1ccc2c(c1)O[C@@H](CN(C)Cc1ccccc1)[C@H](C)CN([C@H](C)CO)S2(=O)=O`, the AC40 was 8.93 µM.
Turning to `Cc1cccc(-n2c(C)c(C)c3c(N)ncnc32)c1`, the AC40 was > 35 µM (inactive).
The result for `CCCCCCN1C[C@H](n2cc(C3CC3)nn2)[C@@H](O)C[C@@H]1c1ccc(C)cc1` reads 5.22 µM.
`Fc1ccccc1/C=N/n1c(C2CCCCC2)n[nH]c1=S`: the AC40 is 11.8 µM.
The result for `Cc1c(C)c2c(OCC(=O)O)cc3c(c2oc1=O)CCC(C)(C)O3` reads 22 µM.
The figure for `O=C(Nc1nnc(-c2ccc(F)cc2)s1)C1CCN(S(=O)(=O)c2ccc(Cl)cc2)CC1` is 5.13 µM; for `CCCCc1c(-c2ccccc2OC)ncn1C(C)c1ccccc1` (stereo not drawn) it is 12.5 µM.
Turning to `COc1nc(-c2ccc(Cl)cc2)ccc1-c1noc(-c2ccco2)n1`, the AC40 was 16 µM.
The result for `COc1ccnc(N2CCN(c3cccc(C(F)(F)F)c3)CC2)c1C#N` reads 10.1 µM; that for `CCCCCCCOC(=O)c1nc(Cl)c(Cl)c(N)c1Cl`, 8.89 µM; that for `O=c1[nH][nH]c2c1C(c1ccc(Cl)c(Cl)c1)OC(CCc1ccccc1)C2` (stereo not drawn), 19.2 µM.
Turning to `O=C(COc1ccccc1)Nc1sc2c(c1C(=O)NCc1cccnc1)CCCC2`, the AC40 is 6.97 µM.
As to `COC(=O)Cn1cc(C#N)c2ccccc21`, the AC40 was > 35 µM (inactive).
`CCCNC(=O)c1nnsc1S(=O)c1ccc(Cl)cc1` (stereo not drawn): the AC40 is 1.16 µM.
The result for `COCc1[nH]nc2c1C(c1ccc(C)cc1)NC2=O` (stereo not drawn) reads 28.5 µM; that for `COc1ccc(S(=O)(=O)Nc2ccccc2OC)cc1N=Nc1c(O)[nH]c(=S)[nH]c1=O`, 12.6 µM; that for `C/C(=N\NC(=O)c1ccc(Cl)c(Cl)c1)c1ccc(Br)s1`, 7.32 µM.
For the molecule `CNc1nc(-c2ccccc2)[n+](-c2ccc(C)cc2)s1`, the AC40 was 0.858 µM.
The result for `Fc1cccc(-c2ccc(C3[C@@H]4CN(Cc5ccccc5F)C[C@H]3N4)cc2)c1` (stereo partly drawn) reads 6.11 µM.
